Here are results for one compound from PMC5651845, “A New Generation of Arachidonic Acid Analogues as Potential Neurological Agent Targeting Cytosolic Phospholipase A2” (Scientific Reports, 2017).

In one series the target is T1, recombinant cPLA2 (Homo sapiens, UniProt P47712).
T1 construct: purchased US Biological P4074-03R
T1 sequence (P47712 1-749): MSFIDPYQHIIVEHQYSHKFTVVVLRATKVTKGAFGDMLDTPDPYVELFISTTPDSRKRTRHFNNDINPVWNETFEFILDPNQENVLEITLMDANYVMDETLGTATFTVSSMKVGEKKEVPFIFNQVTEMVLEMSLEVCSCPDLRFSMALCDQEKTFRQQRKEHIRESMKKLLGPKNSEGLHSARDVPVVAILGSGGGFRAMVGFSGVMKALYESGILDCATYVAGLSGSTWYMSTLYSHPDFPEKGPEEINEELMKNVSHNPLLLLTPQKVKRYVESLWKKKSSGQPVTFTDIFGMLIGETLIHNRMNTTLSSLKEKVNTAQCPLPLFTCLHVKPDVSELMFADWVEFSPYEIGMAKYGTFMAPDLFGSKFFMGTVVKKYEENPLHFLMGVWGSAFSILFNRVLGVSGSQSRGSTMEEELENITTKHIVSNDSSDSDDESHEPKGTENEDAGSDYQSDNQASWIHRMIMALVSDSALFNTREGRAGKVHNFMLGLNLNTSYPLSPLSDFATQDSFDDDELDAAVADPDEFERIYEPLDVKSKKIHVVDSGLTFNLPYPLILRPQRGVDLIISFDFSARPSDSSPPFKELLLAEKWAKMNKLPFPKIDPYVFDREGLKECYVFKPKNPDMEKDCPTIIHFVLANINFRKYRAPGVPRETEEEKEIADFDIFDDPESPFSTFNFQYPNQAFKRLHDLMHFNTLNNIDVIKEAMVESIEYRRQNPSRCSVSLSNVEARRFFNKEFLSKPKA
Briefly: EnzChek phospholipase A2 fluorogenic assay (IC50). The series is classed as biochemical. As to the method:
The assay was conducted as described above. Instead of adding a fixed concentration of the test compound, various concentrations of compound were reconstituted in DMSO. 48 μL of 1X phospholipase A2 reaction buffer were added into each well of a 96-wells plate. This was followed by addition of 1 μL of recombinant cPLA2 (P4074-03R, US Biological) and 1 μL of the respective concentration of the test compound dissolved in DMSO. The reaction was initiated by adding 50 μL of the substrate solution and incubating at room temperature for 1 h. Fluorescence was measured using a Varioskan plate reader by exciting at 485 nm, while fluorescence emission was detected at 515 nm. Positive control was performed when 1 μL of test compound was replaced by vehicle DMSO. IC50 was expressed as the mean value of duplicate wells from three experiments.

The target in series [1] is T2, sPLA2, human recombinant type V (Homo sapiens, UniProt P39877).
T2 construct: purchased Cayman Chemical 10009563
T2 sequence (P39877 21-138): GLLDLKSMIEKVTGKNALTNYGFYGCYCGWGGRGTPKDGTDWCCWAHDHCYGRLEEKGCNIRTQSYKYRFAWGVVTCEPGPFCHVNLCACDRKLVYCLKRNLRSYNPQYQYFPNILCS
Briefly: EnzChek phospholipase A2 fluorogenic assay (selectivity) with sPLA2. Conditions: 10 μM, relative to DMSO control. The series is classed as biochemical. As for the experimental part:
To further explore their selectivity towards cPLA2, 10 μM of 2g and 2i were evaluated for their inhibition against recombinant sPLA2 using the fluorogenic PLA2 assay (Fig. 3C).
The assay was conducted as described above. Instead of adding cPLA2, it was replaced by sPLA2. 48 μL of 1X phospholipase A2 reaction buffer was added into each well of a 96-wells plate. This was followed by addition of 1 μL of sPLA2, human recombinant type V (10009563, Cayman Chemical) and 1 μL of 1 mM of the respective compound or thioetheramide-PC (62750, Cayman Chemical) dissolved in DMSO. The final concentration of the test compound achieved is 10 μM. The reaction was initiated by adding 50 μL of the substrate solution and incubating at room temperature for 1 h. Fluorescence was measured using a Varioskan plate reader by exciting at 485 nm, while fluorescence emission was detected at 515 nm. Positive control was performed when 1 μL of test compound was replaced by vehicle DMSO. % activity was expressed as the mean value of duplicate wells from four experiments. % activity was calculated by the following formula:2 %activity=fluorescenceoftestedwell−background/fluorescenceofpostivecontrol−background

A short description of series [2]: PAMPA with porcine brain lipids (BBB permeation). Conditions: pig, pH 7.4. As for the experimental part: Thus to explore whether 2i is able to penetrate into the brain, we used PAMPA with porcine brain lipids as the lipid barrier. […] A minimum Pe of […] × 10^−6 cm/s has been cited as the threshold for permeability across the blood brain barrier.
The Parallel Artificial Membrane Permeability Assay (PAMPA) was used to determine the effective permeability (Pe) of 2i. The method reported by Di et al.[53] was followed with modifications. Determinations were carried out on MultiScreen-IP PAMPA assay (donor) plates (MAIPNTR10) and MultiScreen Receiver Plates (MATRNPS50) from Millipore Corporation (USA) with porcine polar brain lipids (Avanti Polar Lipids Inc, Alabaster, AL) as the lipid barrier.
An aliquot (5 µL) of 2% porcine brain lipids in dodecane (ReagentPlus®, Sigma Aldrich, USA) was dispensed into the donor well. A stock solution (5 mM) of 2i prepared in DMSO was diluted with 1x phosphate buffer (PBS, pH 7.4) to give a 50 µM solution. An aliquot (300 µL) of the solution was dispensed into the donor well and an equal volume of buffer (1xPBS with 1% DMSO) was added to the corresponding acceptor well. The donor and acceptor plates were assembled, the unit was placed in a humidified box and gently agitated on a mini shaker at room temperature (25 °C) for 16 h. After this time, aliquots (200 µL) were withdrawn from the donor and acceptor wells, diluted separately to 1 mL with PBS, and quantified at λmax of 290 nm on a Shimadzu UV-1800 Spectrophotometer.
300 µL aliquots of stock solutions (500 µM, 1xPBS, 0.1% DMSO) were dispensed to donor wells as described earlier. Quantification was by UV at λmax of 272 nm (caffeine), 284 nm (carbamazepine), 330 nm (quinidine), 280 nm (dopamine) and 288 nm (propanolol). […] Pe was obtained from (3):3 Pe=−2.303×{VAVD/[(VA+VD)×A×t]}×log{1−[(VA+VD)/(VD.S)]×CA(t)/CD(0)} where VA and VD are the volumes of acceptor (cm^3) and donor (cm^3) wells respectively, A is the area of the surface area of the membrane (0.24 cm^2), t is the permeation time (s). The Pe of each compound was obtained from at least 3 separate experiments using 2 different stock solutions. For each independent determination, triplicates (3 wells) were run for each compound.

Usually IC50 stands for the concentration that inhibits the measured activity by half. One may read the Papp as the rate of passage across a membrane or cell layer, normalised by area and donor concentration. High values mean ready permeation, low ones poor permeation.

For the compound `CCCCC/C=C\C/C=C\C/C=C\C/C=C\CCCCC(=O)Nc1cccc(C(=O)O)c1` [2i], the IC50 on recombinant cPLA2 is 2.9 ± 0.2 µM. For the same compound, the “fold stronger cPLA2 inhibition than 1a (from IC50)” value at recombinant cPLA2 (relative to 1a) is 5.5 fold. In addition, in series [1], the sPLA2 activity result is given as “did not provide a significant change in sPLA2 activity”. The compound further yielded a Papp at 16 h, 50 µM in series [2] of 12.3 ± 1.46 ×10⁻⁶ cm/s.
